Data from US20080248008A1, “Inhibitors of Protein Kinase a Anchoring” (priority 2004, published 2008).

Experiments:
Assay type in all cases: cell-based
[1] = target: T1, RI in lipid rafts of Jurkat T cells (Homo sapiens, UniProt P10644); assay: PKA content of lipid rafts from transfected Jurkat T cells (densitometry); conditions: n=1
T1 construct: endogenous in cells; host or cells: Jurkat T cells
Protocol: Densitometric analysis. The densitometric analysis was performed using Scion Image (www.scioncorp.com) (Scion Coorperation, Mo., USA) or Quantity One version 4.5.0, (BioRad).
Cell cultures and transient transfections. The human leukemic T cell line Jurkat (clone E6.1), Jurkat TAg, a derivative of the Jurkat cell line stably transfected with the SV40 large T antigen (Clipstone, N. A., and Crabtree, G. R., 1992, Nature. 357:695-697) was cultured at 37° C. in RPMI medium (Gibco BRL) supplemented with 10% fetal calf serum, 2 mM glutamine, penicillin, streptomycin, 1 mM sodium pyruvate and nonessential amino acids. For transfections, cells (5×10^6) in 0.4 ml Opti-MEM were mixed with 40 μg of each DNA construct (GFP-MEME3 or GFP-Scrambled MEME3) in electroporation cuvettes with a 0.4-cm electrode gap (BioRad Laboratories) and subjected to an electric field of 250 V/cm with 960 μF capacitance. A total of 2×10^7 cells were transfected per DNA construct. The cells were expanded in complete medium and harvested after 20 h. The transfection efficiency was determined by microscopic analysis.
Immunoblot analysis. Immunocomplexes and lipid raft fractions were analysed on a 10, 15% or 4-20% PAGE and blotted onto PVDF membranes. […]
Lipid Raft Purification. […] The fractions were analysed by immunoblot analysis. […]

[2] = test system: human peripheral blood T cells; assay: Flow cytometry of cell death/apoptosis in activated T cells
Protocol: Flow cytometry. Negatively selected CD3^+ T cells cultured in flat-bottom, 96-well plates (Costar; 0.2×10^6 cells/well) were activated with OKT-3 (4 ng/μl) for […] at 37° C., crosslinked with F(ab′)2 fragments (39 μg/ml) and thereafter incubated with arginine-coupled peptides at 0-50 μM. For analyzing the DNA content, the cells were incubated further for 36-40 hours and thereafter washed in PBS, fixed in […], permeabilized in FACS Permeabilizing Solution (BD BioSciences, San Jose, Calif.) for 10 min and washed in PBS containing 1% BSA and 100 μg/ml RNase prior to being stained with propidium iodide (PI, Cat. No. 51-66211E BD Biosciences Pharmingen, San Diego, Calif., USA) (25 μg/ml) for 15 min 37° C. The cells were washed twice in PBS and fixed in 1% paraformaldehyde before flow cytometry (FACSCalibur, BD Biosciences, San Jose, Calif.) and subsequent analysis using FlowJo software (Tree Star, San Carlos, Calif.). For analyzing apoptosis and necrosis, the cells were incubated further for 18 hours and thereafter washed in PBS, fixed in 1% paraformaldehyde and washed with annexin binding buffer (Cat. No. 51-66121E, BD Biosciences) prior to being stained with Annexin V (3 μl to 50 μl volume, Cat. No. 556419, BD Biosciences Pharmingen) and PI (3 μg/ml) for 20 min on ice. The cells were washed twice in PBS and fixed in 1% paraformaldehyde before being analyzed on a flow cytometer (FACSCalibur, BD Biosciences, San Jose, Calif.) and analyzed using FlowJo software (Tree Star, San Carlos, Calif.).
To test whether MEME3-Arg11 induces cell death or apoptosis in human peripheral blood T cells, activated T cells treated with increasing doses of MEME3-Arg11 were analysed by forward scatter/sideward scatter (FSC/SSC) in a fluorescence-activated cell sorter (FACS). […] Apoptosis was also assessed by Annexin V^FITC labeling under the same experimental conditions. […] The effect of the peptides on cellular DNA content was also measured by flow cytometry after permeabilization of the fixed cells and PI-staining.
Cell death was also analysed by monitoring PS externalization by Annexin V binding and destruction of the cellular membrane by PI staining using FACS.

[3] = target: T2, PKA-type II in lipid rafts of human peripheral blood T cells (Homo sapiens, UniProt P13861); assay: PKA type II content of lipid rafts from human T cells; conditions: n=4
T2 construct: endogenous in cells; host or cells: human peripheral blood CD3+ T cells
Protocol: Lipid Raft Purification. Isolation of lipid rafts or glycolipid-enriched membrane microdomains was performed as described in detail elsewhere (Zhang, W. et al., 1998, Immunity 9:239-246). In brief, cells were homogenized in 1 ml ice-cold lysis buffer (50 mM Hepes, pH 7.4, 100 mM NaCl, 5 mM EDTA, […], 10 mM sodium pyrophosphate, 1 mM Na3VO4, 50 mM NaF, 1 mM PMSF, and protease inhibitors) by 10 pestle strokes in a Dounce homogenizer, loaded at the bottom of a 40-5% sucrose gradient and centrifuged at 200,000 g for 5 or 20 h. 80 μl or 0.4-ml fractions were collected from the top. The fractions were analysed by immunoblot analysis. LAT was used as a marker for lipid raft fractions.
Lipid rafts were purified from isolated human peripheral blood T cells treated with MEME3-Arg11 or SM3-Arg11 for 12 hours, followed by 10% PAGE and blotting onto a PVDF membrane and immunoblotting (FIG. 18, left panel). The PKA content was measured by densitometry of immunoblots (n=4). PKA type I in cells treated with 10 μM or 25 μM M3-Arg11 was reduced by 80% and 90%, respectively. The very weak signal observed after immunoblotting using antibodies against RIIα (data not shown) was measured by densitometry of the autoradiogram. The PKA-type II level was not reduced in lipid rafts from human peripheral blood T cells treated with MEME3-Arg11 (FIG. 18, right panel, n=4).

[4] = activated T cells, increasing doses

T2 sequence (P13861 whole entry): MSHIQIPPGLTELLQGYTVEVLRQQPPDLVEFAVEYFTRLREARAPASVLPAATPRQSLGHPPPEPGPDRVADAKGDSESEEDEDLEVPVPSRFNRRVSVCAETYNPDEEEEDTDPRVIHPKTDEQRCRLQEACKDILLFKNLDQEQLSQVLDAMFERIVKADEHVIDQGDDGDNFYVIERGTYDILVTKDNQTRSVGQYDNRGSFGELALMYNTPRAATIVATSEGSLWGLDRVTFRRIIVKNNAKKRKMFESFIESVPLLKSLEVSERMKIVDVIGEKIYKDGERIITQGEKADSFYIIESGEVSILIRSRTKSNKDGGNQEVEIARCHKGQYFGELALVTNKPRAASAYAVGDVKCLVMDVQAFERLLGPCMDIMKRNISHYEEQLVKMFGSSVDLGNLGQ

Compound | reduction of RI concentration in lipid rafts compared to SM3 [1] | annexin V binding [2, 4] | morphological changes (FSC/SSC) [2, 4] | late apoptotic cells (AV+/PI+) ([2]; overnight) | DNA content (aneuploidity), PI-staining ([2]; permeabilized fixed cells) | PKA-type II level in lipid rafts [3]
CC[C@H](C)[C@H](NC(=O)[C@H](CCC(N)=O)NC(=O)[C@H](CC(=O)O)NC(=O)[C@H](C)NC(=O)[C@H](CC(C)C)NC(=O)[C@H](CCC(N)=O)NC(=O)[C@H](CC(N)=O)NC(=O)[C@H](C)NC(=O)[C@H](Cc1ccc(O)cc1)NC(=O)[C@H](CCC(N)=O)NC(=O)[C@H](CCC(=O)O)NC(=O)[C@@H](N)CC(C)C)C(=O)N[C@H](C(=O)N[C@@H](CCCCN)C(=O)N[C@@H](CCC(=O)O)C(=O)N[C@@H](C)C(=O)N[C@H](C(=O)N[C@@H](CCC(=O)O)C(=O)N[C@@H](CCCCNC(=O)c1ccc2c(c1)C(=O)OC21c2ccc(O)cc2Oc2cc(O)ccc21)C(N)=O)[C@@H](C)O)[C@@H](C)CC [MEME3] | 40% | – | – | – | – | –
LEQYANQLADQIIKEATERRRRRRRRRrr [MEME3-Arg11] | – | no increase in annexin V binding, but rather a small decrease | no morphological changes characteristic of apoptosis | No late apoptotic cells (AV+/PI+) were detected | No change in DNA content | not reduced
